These results are taken from patent US10464890B2, “PGAM1 inhibitors and methods related thereto” (Emory University, priority 2011, dated 2019).

Test [1] concerns H1299 cells. Nature of the test: Lactate production assay. It counts as cell-based, human. As for the experimental part:
Cellular lactate production was measured under normoxia with a fluorescence-based lactate assay kit (MBL). Phenol red-free RPMI medium without FBS was added to a 6 well-plate of subconfluent cells, and was incubated for 1 h at 37° C. After incubation, 1 ml of media from each well was assessed using the lactate assay kit. Cell numbers were counted by a microscope (×40). Oxygen consumption rates were measured with a Clark type electrode equipped with 782 oxygen meter (Strathkelvin Instruments). 1×10^7 cells were resuspended in RPMI 1640 medium with 10% FBS and placed into a water-jacked chamber RC300 (Strathkelvin Instruments) and recording was started immediately. Intracellular ATP concentration was measured by an ATP bioluminescent somatic cell assay kit (Sigma). 1×10^6 cells were trypsinized and resuspended in ultrapure water. Luminescence was measured with spectrofluorometer (SPECTRA Max Gemini; […]) immediately after the addition of ATP enzyme mix to cell suspension.

For test [2], the system named is H1299 cells. The experiment in a line: Cellular 2-PG and 3-PG measurement. Format: cell-based, human. As for the experimental part:
Cellular metabolites were extracted and spectrophotometrically measured as described previously with some modifications. To determine cellular concentration of 2-PG and 3-PG, 100 μL of packed cell pellets were homogenized in 1.5 ml of hypotonic lysis buffer (20 mM HEPES (pH 7.0), 5 mM KCl, 1 mM MgCl2, 5 mM DTT, and protease inhibitor cocktail). The homogenates were centrifuged in a cold room at 4° C. for 10 minutes at maximum speed, and the supernatants were applied to Amicon Ultra tubes with 10KDa cut off filter (Millipore). The flow through containing the metabolites was used for the measurement. NADH, ADP, and MgCl2 were added to the flow through to final concentrations of 0.14 mM, 1 mM, and 50 mM, respectively. Recombinant LDH and PKM1 proteins were added to final concentrations of 5 μg/ml and 10 μg/ml, respectively. Recombinant enolase protein was added to a final concentration of 50 μg/ml to measure cellular 2-PG. Once the reaction was initiated by enolase, a decrease in absorbance at 340 nm from NADH oxidation was measured by a DU800 spectrophotometer (Beckman). After termination of the enolase reaction, recombinant PGAM1 protein was added to a final concentration of 25 μg/ml and the decrease in absorbance at 340 nm was immediately monitored to measure cellular 3-PG. 100 μL of 2-PG and 3-PG (Sigma) diluted with 1.5 ml of hypotonic lysis buffer were used as the standards.
Alternatively, perchloric acid was used to quench metabolism and the acid extracts from H1299 cell lysates were then neutralized with KOH (DeBerardinis et al., 2007), followed by enzymatic reactions using the final supernatant to determine the 3-PG and 2-PG levels. An isotope-ratio based detection method was used to determine intracellular 3-PG and 2-PG levels in cells. In brief, pure standards were derivatized with a trimethylsilyl donor (Tri-Sil, Pierce) and used to determine the retention times of 2-PG and 3-PG on GC/MS. These standards were also used to identify parent ions containing all three 2-PG and 3-PG carbons on the derivatized molecule (m/z 459 for both 2-PG and 3-PG), and to generate algorithms for natural isotope abundance correction. Next, two dishes of H1299 cells were cultured in RPMI supplemented with [U-^13C]glucose so that approximately 25% of the total glucose pool was labeled. After 6 hours of culture, the cells were quickly rinsed in ice-cold normal saline, lysed in 1 mL of cold 50% methanol, and frozen in liquid nitrogen. […] The second sample was spiked with 25 nmoles of unlabeled 2-PG and 3-PG, derivatized, and analyzed by GC/MS. […] Assuming a 100 μL volume for the cell pellet, these figures correlate to intracellular concentrations of 66 μM for 2-PG and 81 μM for 3-PG, very close to the values measured by the enzymatic assay.

Test [3] concerns H1299 cells. Nature of the test: 14C-lipid synthesis and 14C-RNA synthesis assays. It counts as cell-based, human. As for the experimental part: ^14C-lipids synthesized from ^14C-glucose were measured. […] Wells were washed with an additional 500 μL of hexane:isopropanol solution, and extracts were combined and air dried with heat. Extracted lipids were resuspended in 50 μL of chloroform, and subjected to scintillation counting. Scintillation counts were normalized with cell numbers counted by a microscope (×40). ^14C-RNA synthesized from ^14C-glucose was measured. […] RNA was then extracted using RNeasy columns (Qiagen) and ^14C-RNA was assayed by scintillation counter. ^14C counts for each sample were normalized by the amount of RNA.

The test system of test [4] is human primary leukemia cells. Nature of the test: Primary leukemia cells from human patients. It counts as cell-based. The text has this:
Approval of use of human specimens was given by the Institutional Review Board of Emory University School of Medicine. All clinical samples were obtained with informed consent with approval by the Emory University Institutional Review Board. Clinical information for the patients was obtained from the pathological files at Emory University Hospital under the guidelines and with approval from the Institutional Review Board of Emory University School of Medicine and according to the Health Insurance Portability and Accountability Act. Only samples from patients that were not previously treated with chemotherapy or radiation therapy were used. Mononuclear cells (MNCs) were isolated from peripheral blood and bone marrow samples from human leukemia patients or peripheral blood samples from healthy donors using lymphocyte separation medium (Cellgro).
Only samples from patients that were not previously treated with chemotherapy or radiation therapy were used. Mononuclear cells (MNCs) were isolated from peripheral blood and bone marrow samples from human leukemia patients or peripheral blood samples from healthy donors using lymphocyte separation medium (Cellgro).

Test [5] relates to H1299 cells. Nature of the test: Oxidative PPP flux assay using 14CO2 release. Format: cell-based, human. As for the experimental part:
Cells were seeded on 6-cm dishes that are placed in a 10-cm dish with 2 sealed pinholes on the top. ^14CO2 released from cells was collected by completely sealing the 10-cm dish, in which the cells on the 6-cm dish were incubated in 2 ml of medium containing [1-^14C]- or [6-^14C]-glucose, respectively, at a final specific activity of 10 μCi/ml glucose at 37° C. for 3 h. The oxidative PPP flux was stopped by injecting 0.3 ml of 50% TCA through one of the holes on the top, and at the same time ^14CO2 released was trapped by injecting 0.3 ml of Hyamine Hydroxide into a small cup placed on the 10-cm dish through the second hole. Krebs cycle measurements, obtained in parallel samples incubated with [6-^14C]-glucose, were used to correct the oxidative PPP flux measurements obtained from samples incubated with [1-^14C]-glucose. Each dish was completely re-sealed with parafilm and incubated overnight at room temperature. Hyamine Hydroxide in the small cup was dissolved into 60% methanol and directly subjected to scintillation counting.

Where [6] appears, read: H1299 cells treated with PGMI-004A.
The mark [7] stands for this setting: primary leukemia cells from a representative AML patient.
Where [8] appears, read: samples from 7 out of 8 leukemia patients.
Setting [9] is: H1299 PGAM1 knockdown cells, methyl-2-PG.

Turning to `O=C1c2ccccc2C(=O)c2c1cc(S(=O)(=O)Nc1ccc(C(F)(F)F)cc1)c(O)c2O` [PGMI-004A, N-(4-trifluoromethyl)-penyl-3,4-dihydroxy-9,10-dioxo-2-anthracenesulfonamide], in test [1] (setting [6]), the lactate production entry was “significantly reduced lactate production”. For the same molecule, in test [2] (setting [6]), the 2-PG levels result was “decreased” and the 3-PG levels result is “increased”. In addition, in test [3] (setting [6]), the “biosynthesis of RNA” value was “reduced” and the biosynthesis of lipids result is “reduced”. Moreover, in test [4] (setting [7]), the 2-PG levels entry is reported as “decreased” and the 3-PG levels result is “increased”. In test [4] (setting [8]), the PGAM1 activity entry is on record as “reduced PGAM1 activity”, the cell viability result was “decreased cell viability” and the lactate production result is “reduced”. Further, the “oxidative PPP flux” value in test [5] (setting [6]) was “decreased oxidative PPP flux”.
In the case of `COC(=O)[C@@H](CO)OP(=O)(O)O` [methyl-2-PG, methyl ester of D(+)-2-phosphoglyceric acid, reference compound], the lactate production result in test [1] (H1299 cells with stable knockdown of PGAM1, methyl-2-PG) is on record as “rescues the reduced lactate production”. In test [2] (diverse PGAM1 knockdown cancer cells treated with methyl-2-PG), the 2-PG cellular levels entry is on record as “increased 2-PG cellular levels”. The 3-PG concentrations result in test [2] (diverse PGAM1 knockdown cells treated with methyl-2-PG) was “decreased 3-PG concentrations”. The “biosynthesis of RNA and lipids” value in test [3] (setting [9]) is given as “rescues”. The “cell viability in PGMI-004A-treated primary leukemia cells” value in test [4] (representative AML patients, methyl-2-PG added to PGMI-004A) is on record as “rescues the decreased cell viability”. The “oxidative PPP flux” value in test [5] (setting [9]) is “rescues the decreased oxidative PPP flux”.
